In patent US20150125515A1, “NOVEL SP-B & SP-C PEPTIDES, SYNTHETIC LUNG SURFACTANTS, AND USE THEREOF” (UNIVERSITY OF ROCHESTER, priority 2012, published 2015):
Bridges are numbered along the chain shown (N, C = ends). Roman numbers before positions name the chains, in order. Where no end group is shown, it is not given here.

Tests used:
[1] = Adsorption of surfactant compositions to the air-water interface (surface pressure vs time, Wilhelmy method); assay type: physicochemical; conditions: for adsorption compared with lung surfactant (CLSE in Table 7): 3% by weight peptide with 5:3:2 (molar ratio) DPPC:POPC:POPG; for adsorption, result in words: peptide 3% by weight with synthetic ester linked phospholipids 5:3:2 DPPC:POPC:POPG
Description: Surface activity of synthetic peptide/lipid surfactant compositions was assessed by either or both of the following methods: (1) measurement of the adsorption of surfactant compositions to the air-water interface as a function of time, and (2) measurement of overall dynamic surface activity on a pulsating bubble surfactometer (general methodological details of these two experimental techniques are described by Notter, Lung Surfactants: Basic Science and Clinical Applications, Marcel Dekker, Inc, New York (2000), which is hereby incorporated by reference in its entirety).
In adsorption studies, a given surfactant mixture was injected at time zero beneath the surface of a stirred surfactant-free subphase, and surface pressure (defined as surface tension lowering below that of the pure subphase) was measured as a function of time from the force on a hanging platinum slide (“Wilhelmy” method). By definition, higher surface pressure corresponds to lower surface tension (Notter, Lung Surfactants: Basic Science and Clinical Applications, Marcel Dekker, Inc, New York (2000)).

[2] = tested on: ventilated rabbits with ARDS induced by saline lavage; experiment: Saline-lavage ventilated rabbit model of ARDS: arterial oxygenation and dynamic compliance; assay type: in vivo, New Zealand white rabbits; conditions: for Oxygenation and lung compliance after instillation (FIG. 1): SP-B mimics 3.0% by weight in 5:3:2 (weight ratio) DPPC:POPC:POPG; for Oxygenation and lung compliance after instillation (FIG. 1) / Oxygenation and lung compliance after instillation (FIG. 2): PBS pH 7.4, 35 mg/mL; for Oxygenation and lung compliance after instillation (FIG. 1) / relative order of pulmonary activity in terms of oxygenation / relative pulmonary activity with respect to lung compliance / Oxygenation and lung compliance after instillation (FIG. 2) / relative order of pulmonary activity in terms of oxygenation and lung compliance: intratracheal 100 mg/kg; for Oxygenation and lung compliance after instillation (FIG. 1) / relative order of pulmonary activity in terms of oxygenation / relative pulmonary activity with respect to lung compliance: over 120 min; for relative order of pulmonary activity in terms of oxygenation / relative pulmonary activity with respect to lung compliance: SP-B mimics 3.0% by weight in 5:3:2 DPPC:POPC:POPG; for Oxygenation and lung compliance after instillation (FIG. 2): SP-C mimics 3.0% by weight in 5:3:2 (weight ratio) DPPC:POPC:POPG; for relative order of pulmonary activity in terms of oxygenation and lung compliance: SP-C mimics 3.0% by weight in 5:3:2 DPPC:POPC:POPG
Description: Saline lavage produces surfactant deficiency, alveolar collapse and lung edema in ventilated rats and rabbits, and is a useful experimental model for human ARDS. A saline-lavage rabbit model for lung injury was thus used to compare synthetic surfactants, with lipids only as negative control. Restoration of lung function was assessed by serial monitoring of gas exchange and lung mechanics. Physiological activity results for selected synthetic SP-B peptides are shown below, and physiological activity results for selected synthetic SP-C peptides are included in following Example 8.
Animal experiments were performed following established protocols approved by the Animal Care and Use Committee at the Los Angeles Biomedical Research Institute at Harbor-UCLA Medical Center. […] In brief, experimental animals were commercially available young adult male New Zealand white rabbits whose respiratory function was followed during mechanical ventilation by measurements of serial arterial blood gases and pulmonary compliance over the first 2 hours after a standardized saline lavage protocol. For this timeframe of study, the model reflected a relatively pure state of surfactant insufficiency in animals with mature lungs. Saline lavage administration was performed after induction of anesthesia, insertion of a venous line in a marginal ear vein, endotracheal intubation and initiation of mechanical ventilation, muscle paralysis, and insertion of a carotid arterial line. Heart rate, arterial blood pressure and rectal temperature were measured continuously. After stabilization on the ventilator, saline lavage was performed with repeated intratracheal instillation and removal of 30 mL of normal saline until the PaO2 dropped below 100 mm Hg (average 3 lavages). Maintenance fluid was provided by a continuous infusion of Lactated Ringer's solution at a rate of 10 ml/kg/h. Edema fluid appearing in the trachea was removed by suctioning. When the PaO2 was stable at less than 100 mm Hg in saline lavaged animals, an experimental or control surfactant mixture was instilled into the trachea at a dose of 100 mg/kg body weight and a concentration of 35 mg/mL. The rabbits were ventilated using a Harvard volume-controlled animal ventilator (tidal volume 7.5 ml/kg, a positive end-expiratory pressure [PEEP] of 3 cm H2O, an inspiratory/expiratory ratio of 1:2, 100% oxygen, and a respiratory rate to maintain a PaCO2 at ˜40 mm Hg). Airway flow and pressures and tidal volume were monitored continuously with a pneumotachograph connected to the endotracheal tube and a pneumotach system. Arterial pH and blood gases were done every 15 minutes. Dynamic lung compliance was calculated by dividing tidal volume/kg body weight by changes in airway pressure (peak inspiratory pressure minus positive end-expiratory pressure) (mL/kg/cmH2O). Animals were sacrificed 2 h after surfactant administration with an overdose of pentobarbital. End-points are pulmonary gas exchange (arterial pH, PaCO2 and PaO2) and pulmonary mechanics (dynamic compliance, postmortem pressure-volume curves). Each treatment group consisted of n=4-9 animals.
The in vivo pulmonary activity of reduced MB DATK and SMB DATK was investigated in comparison with oxidized SMB and MB (positive controls) and lipids alone (negative control) over 120 min, following intratracheal instillation of these surfactants into ventilated rabbits with ARDS induced by saline lavage. Oxidized SMB and MB were used as positive controls, because these SP-B mimics previously indicated high in vivo surfactant activities equal to those of native, full-length porcine SP-B in ventilated rats with ARDS (Walther et al., “Critical Structural and Functional Roles for the N-terminal Insertion Sequence in Surfactant Protein B Analogs,” PLoS One 5:e8672 (2010), which is hereby incorporated by reference in its entirety). […]

CWLCRALIKRIQAMIDATKRMLPQLVCRLVLRCS (not fully specified (residues 1, 33, bridges); cysteine pairing not given here) [MB DATK_Red]
adsorption activity relative to that previously reported for MB without the DATK substitution ([1]; Table 10 conditions, 3% by weight with 5:3:2 DPPC:POPC:POPG): improved | Oxygenation and lung compliance after instillation (FIG. 1) [2]: increased quickly | relative order of pulmonary activity in terms of oxygenation [2]: reduced SMB DATK˜SMB_Ox˜MB_Ox>reduced MB DATK>Lipids alone | relative pulmonary activity with respect to lung compliance [2]: reduced SMB DATK>SMB_Ox˜reduced MB DATK˜MB_Ox>Lipids alone

FGIPFFPVHLKRLLILLLL-CONH2 (FGIPFFPVHLKRLLILLLL-NH2) [Mini-SPCff_2_leu]
adsorption compared with lung surfactant (CLSE in Table 7) [1]: equaling that of lung surfactant

FPIPLPYCWLCRALIKRIQAMIDATKRMLPQLVCRLVLRCS (not fully specified (residues 8, 40); cysteine pairing not given here) [SMB DATK_Red]
arterial oxygenation and dynamic compliance compared with reduced MB DATK ([2]; FIG. 1, 3.0% by weight in 5:3:2 DPPC:POPC:POPG): significantly higher | Oxygenation and lung compliance after instillation (FIG. 1) [2]: increased quickly | relative order of pulmonary activity in terms of oxygenation [2]: reduced SMB DATK˜SMB_Ox˜MB_Ox>reduced MB DATK>Lipids alone | relative pulmonary activity with respect to lung compliance [2]: reduced SMB DATK>SMB_Ox˜reduced MB DATK˜MB_Ox>Lipids alone

GIPFFPVHLKRLLIKVVVEELIVKVIVGALLMGL (SP-C FF Ion Lock2 K15/E19;E20/K24) [SP-C ion-lock2ff]
adsorption, result in words [1]: substantial rapid adsorption

GIPSSPVHLKRLLIVVVVVELIVKVIVGALLMGL (SP-C SS Ion Lock + L E20/K24) [SP-Css ion-lock]
adsorption, result in words [1]: substantial rapid adsorption | Oxygenation and lung compliance after instillation (FIG. 2) [2]: increased quickly | relative order of pulmonary activity in terms of oxygenation and lung compliance [2]: SP-C33˜SP-Css ion-lock>SP-Cff>Lipids alone

IPSSPVHLKRLKLLKLLLEEILLKILGALLMGL (SP-C33SS Ion Lock2 K15/E19;E20/K24) [SP-C33ss_ion2]
adsorption, result in words [1]: substantial rapid adsorption

IPSSPVHLKRLKLLLLLLLLILLLILGALLMGL (SP-c33) [previously reported SP-C peptide (Almlen et al. 2007)]
Oxygenation and lung compliance after instillation (FIG. 2) [2]: rapidly increased | relative order of pulmonary activity in terms of oxygenation and lung compliance [2]: SP-C33˜SP-Css ion-lock>SP-Cff>Lipids alone

LGIPCFPSSLKRLLIIVVV-CONH2 (chain 1 LGIPCFPSSLKRLLIIVVV-NH2; chain 2 LGIPCFPSSLKRLLIIVVV-NH2; disulfide I:5-II:5 (inferred)) [Mini-C dog cf_cys5 dimer]
adsorption compared with lung surfactant (CLSE in Table 7) [1]: equaling that of lung surfactant

LGIPFFPSSLKRLLIILLL-CONH2 (LGIPFFPSSLKRLLIILLL-NH2) [Mini-SPCff_dog_leu]
adsorption compared with lung surfactant (CLSE in Table 7) [1]: equaling that of lung surfactant

LGIPFFPSSLKRLLIIVVV-CONH2 (LGIPFFPSSLKRLLIIVVV-NH2) [Mini-SPCff_dog]
adsorption compared with lung surfactant (CLSE in Table 7) [1]: equaling that of lung surfactant
